The supplement of paper PMC11451515

Columns and labels:
Settings in all cases: 48 h
[1] = tested on: NOMO1; test: AUC of viability dose-response curve (% viability x log10 dose units); higher = less sensitive
How it was run: (§1)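 Leukemia cells adapted to each medium (500 or 1000 cells/well, 1536-well plates) were exposed to library compounds in DMSO for 48 h at 37°C at 11 threefold doses, 47 μM to 0.79 nM. Luminescence by CellTiter-Glo One was normalised per plate to DMSO and cell-free wells, then fitted with a four-parameter log-logistic curve on log10 dose. Curves above full viability were scaled and quality-control failures removed before area under the curve was integrated by trapezoidal rule.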

[2] = tested on: SEM cells; test: as above
How it was run: as §1

[3] = tested on: P12-Ichikawa; test: as above
How it was run: as §1

[4] = tested on: NOMO1; test: cell viability relative to DMSO control; higher = less cytotoxic
How it was run: (§2)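 Viability is expressed as a percentage of DMSO wells within each plate, and cell-free wells serve as background. Seeding densities in the 1536-well plates (5 μl) were 500 cells/well for NOMO1 or SEM leukemia cells and 1000 cells/well for P12-Ichikawa. Each line was adapted for at least four passages in each medium. Library compounds in DMSO were pin-dosed at 47 μM to 0.79 nM (11 points, threefold), and CellTiter-Glo One luminescence was read after 48 h at 37°C.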

[5] = tested on: SEM cells; test: as above
How it was run: as §2

[6] = tested on: P12-Ichikawa; test: as above
How it was run: as §2

Clc2cccc(Cl)c2\N=C1/NCCN1
AUC of viability dose-response curve
Settings | [1] | [2] | [3]
HPLM + 10% dialyzed FBS | 455 | 414 | 446
RPMI 5 mM glucose + 10% FBS | 474 | 407 | 448
RPMI 5 mM glucose + 10% dialyzed FBS | 468 | 429 | 452

cell viability [%]
Settings | [4] | [5] | [6]
HPLM + 10% dialyzed FBS, 0.000781 µM | 117 | 76.6 | 109
HPLM + 10% dialyzed FBS, 0.00234 µM | 101 | 98.6 | 115
HPLM + 10% dialyzed FBS, 0.00702 µM | 118 | 28.8 | 71
HPLM + 10% dialyzed FBS, 0.0211 µM | 105 | 105 | 123
HPLM + 10% dialyzed FBS, 0.0632 µM | 125 | 90.8 | 116
HPLM + 10% dialyzed FBS, 0.19 µM | 135 | 116 | 123
HPLM + 10% dialyzed FBS, 0.569 µM | 121 | 119 | 120
HPLM + 10% dialyzed FBS, 1.71 µM | 118 | 108 | 120
HPLM + 10% dialyzed FBS, 5.12 µM | 132 | 114 | 116
HPLM + 10% dialyzed FBS, 15.4 µM | 128 | 122 | 122
HPLM + 10% dialyzed FBS, 46.1 µM | 122 | 113 | 121
RPMI 5 mM glucose + 10% FBS, 0.000781 µM | 102 | 92.7 | 109
RPMI 5 mM glucose + 10% FBS, 0.00234 µM | 113 | 103 | 120
RPMI 5 mM glucose + 10% FBS, 0.00702 µM | 124 | 9.62 | 73.8
RPMI 5 mM glucose + 10% FBS, 0.0211 µM | 120 | 119 | 121
RPMI 5 mM glucose + 10% FBS, 0.0632 µM | 112 | 106 | 127
RPMI 5 mM glucose + 10% FBS, 0.19 µM | 118 | 115 | 130
RPMI 5 mM glucose + 10% FBS, 0.569 µM | 113 | 105 | 137
RPMI 5 mM glucose + 10% FBS, 1.71 µM | 124 | 112 | 126
RPMI 5 mM glucose + 10% FBS, 5.12 µM | 105 | 112 | 135
RPMI 5 mM glucose + 10% FBS, 15.4 µM | 116 | 119 | 126
RPMI 5 mM glucose + 10% FBS, 46.1 µM | 111 | 110 | 123
RPMI 5 mM glucose + 10% dialyzed FBS, 0.000781 µM | 105 | 93.3 | 95.8
RPMI 5 mM glucose + 10% dialyzed FBS, 0.00234 µM | 130 | 116 | 115
RPMI 5 mM glucose + 10% dialyzed FBS, 0.00702 µM | 109 | 28.5 | 80.2
RPMI 5 mM glucose + 10% dialyzed FBS, 0.0211 µM | 123 | 126 | 113
RPMI 5 mM glucose + 10% dialyzed FBS, 0.0632 µM | 122 | 131 | 115
RPMI 5 mM glucose + 10% dialyzed FBS, 0.19 µM | 121 | 132 | 121
RPMI 5 mM glucose + 10% dialyzed FBS, 0.569 µM | 123 | 127 | 120
RPMI 5 mM glucose + 10% dialyzed FBS, 1.71 µM | 137 | 130 | 120
RPMI 5 mM glucose + 10% dialyzed FBS, 5.12 µM | 120 | 131 | 112
RPMI 5 mM glucose + 10% dialyzed FBS, 15.4 µM | 114 | 117 | 124
RPMI 5 mM glucose + 10% dialyzed FBS, 46.1 µM | 115 | 138 | 124

O=C(/C=C/c1ccc(/C=C/C(=O)Nc2ccc(C3=NCCN3)cc2)cc1)Nc1ccc(C2=NCCN2)cc1
AUC of viability dose-response curve
Settings | [1] | [2] | [3]
HPLM + 10% dialyzed FBS | 456 | 460 | 467
RPMI 5 mM glucose + 10% FBS | 439 | 448 | 467
RPMI 5 mM glucose + 10% dialyzed FBS | 464 | 459 | 473

cell viability [%]
Settings | [4] | [5] | [6]
HPLM + 10% dialyzed FBS, 0.000781 µM | 103 | 96.5 | 98.7
HPLM + 10% dialyzed FBS, 0.00234 µM | 108 | 103 | 102
HPLM + 10% dialyzed FBS, 0.00702 µM | 111 | 101 | 111
HPLM + 10% dialyzed FBS, 0.0211 µM | 108 | 115 | 115
HPLM + 10% dialyzed FBS, 0.0632 µM | 111 | 129 | 117
HPLM + 10% dialyzed FBS, 0.19 µM | 116 | 118 | 108
HPLM + 10% dialyzed FBS, 0.569 µM | 117 | 115 | 117
HPLM + 10% dialyzed FBS, 1.71 µM | 123 | 117 | 115
HPLM + 10% dialyzed FBS, 5.12 µM | 121 | 103 | 119
HPLM + 10% dialyzed FBS, 15.4 µM | 111 | 103 | 115
HPLM + 10% dialyzed FBS, 46.1 µM | 122 | 115 | 108
RPMI 5 mM glucose + 10% FBS, 0.000781 µM | 104 | 93.6 | 101
RPMI 5 mM glucose + 10% FBS, 0.00234 µM | 98.8 | 104 | 104
RPMI 5 mM glucose + 10% FBS, 0.00702 µM | 115 | 95.5 | 111
RPMI 5 mM glucose + 10% FBS, 0.0211 µM | 117 | 102 | 111
RPMI 5 mM glucose + 10% FBS, 0.0632 µM | 123 | 109 | 109
RPMI 5 mM glucose + 10% FBS, 0.19 µM | 106 | 99.2 | 119
RPMI 5 mM glucose + 10% FBS, 0.569 µM | 106 | 110 | 109
RPMI 5 mM glucose + 10% FBS, 1.71 µM | 115 | 114 | 106
RPMI 5 mM glucose + 10% FBS, 5.12 µM | 117 | 93.5 | 112
RPMI 5 mM glucose + 10% FBS, 15.4 µM | 125 | 72.8 | 107
RPMI 5 mM glucose + 10% FBS, 46.1 µM | 131 | 52.3 | 110
RPMI 5 mM glucose + 10% dialyzed FBS, 0.000781 µM | 88.2 | 104 | 91.3
RPMI 5 mM glucose + 10% dialyzed FBS, 0.00234 µM | 107 | 120 | 109
RPMI 5 mM glucose + 10% dialyzed FBS, 0.00702 µM | 95.5 | 115 | 107
RPMI 5 mM glucose + 10% dialyzed FBS, 0.0211 µM | 106 | 114 | 96.7
RPMI 5 mM glucose + 10% dialyzed FBS, 0.0632 µM | 117 | 109 | 104
RPMI 5 mM glucose + 10% dialyzed FBS, 0.19 µM | 117 | 113 | 115
RPMI 5 mM glucose + 10% dialyzed FBS, 0.569 µM | 113 | 111 | 105
RPMI 5 mM glucose + 10% dialyzed FBS, 1.71 µM | 112 | 120 | 112
RPMI 5 mM glucose + 10% dialyzed FBS, 5.12 µM | 108 | 108 | 109
RPMI 5 mM glucose + 10% dialyzed FBS, 15.4 µM | 112 | 97.7 | 112
RPMI 5 mM glucose + 10% dialyzed FBS, 46.1 µM | 102 | 64.6 | 100
